Values of other authors, collected in publication PMC8513935.
Each block holds one compound with its values, some of them ahead of it.

Key:
[1] = experimental, compiled by the authors from the literature (the ESI cites the sources)
[2] = derived by the authors as gas->solvent minus gas->water (a hypothetical dry solvent; the ESI), not a two-phase measurement
[3] = log P octanol/water from commercial databases, averaged (the ESI); conditions: Octanol (wet), 25 C

Structure (SMILES): CCCCF
log K of transfer, gas to solvent ([1]; Hexadecane, 25 C): 1.77 log10 K
log K of transfer, gas to solvent ([1]; Water, 25 C): -0.29 log10 K
log K of transfer, water to solvent ([2]; Hexadecane, 25 C): 2.06 log10 K
log K of transfer, water to solvent [3]: 2.29 log10 K

log K of transfer, gas to solvent ([1]; 1,2-Dichloroethane, 25 C): 3.44 log10 K
log K of transfer, gas to solvent ([1]; 2-Methylpropan-2-ol, 25 C): 3.39 log10 K
log K of transfer, gas to solvent ([1]; 3-Methylbutan-1-ol, 25 C): 3.4 log10 K
log K of transfer, gas to solvent ([1]; Acetonitrile, 25 C): 2.68 log10 K
log K of transfer, gas to solvent ([1]; Benzene, 25 C): 3.92 log10 K
log K of transfer, gas to solvent ([1]; Butan-1-ol, 25 C): 3.26 log10 K
log K of transfer, gas to solvent ([1]; Butanone, 25 C): 3.45 log10 K
log K of transfer, gas to solvent ([1]; Butyronitrile, 25 C): 3.21 log10 K
log K of transfer, gas to solvent ([1]; CCl4, 25 C): 4.05 log10 K
log K of transfer, gas to solvent ([1]; Chlorobenzene, 25 C): 3.99 log10 K
log K of transfer, gas to solvent ([1]; Chloroform, 25 C): 3.9 log10 K
log K of transfer, gas to solvent ([1]; Cyclohexane, 25 C): 4.07 log10 K
log K of transfer, gas to solvent ([1]; Cyclohexanone, 25 C): 3.42 log10 K
log K of transfer, gas to solvent ([1]; Decan-1-ol, 25 C): 3.32 log10 K
log K of transfer, gas to solvent ([1]; Di-n-butyl ether, 25 C): 3.85 log10 K
log K of transfer, gas to solvent ([1]; Dichloromethane, 25 C): 3.72 log10 K
log K of transfer, gas to solvent ([1]; Diethyl Ether, 25 C): 3.92 log10 K
log K of transfer, gas to solvent ([1]; Ethanol, 25 C): 3.17 log10 K
log K of transfer, gas to solvent ([1]; Hexadecane, 25 C): 3.68 log10 K
log K of transfer, gas to solvent ([1]; Hexane, 25 C): 3.97 log10 K
log K of transfer, gas to solvent ([1]; Methanol, 25 C): 2.82 log10 K
log K of transfer, gas to solvent ([1]; Octan-1-ol, 25 C): 3.3 log10 K
log K of transfer, gas to solvent ([1]; Pentan-1-ol, 25 C): 3.39 log10 K
log K of transfer, gas to solvent ([1]; Perfluoroalkane, 25 C): 2.54 log10 K
log K of transfer, gas to solvent ([1]; Propan-1-ol, 25 C): 3.17 log10 K
log K of transfer, gas to solvent ([1]; Propan-2-ol, 25 C): 3.17 log10 K
log K of transfer, gas to solvent ([1]; Propanone, 25 C): 3.23 log10 K
log K of transfer, gas to solvent ([1]; Propionitrile, 25 C): 3.05 log10 K
log K of transfer, gas to solvent ([1]; Tetrahydrofuran, 25 C): 3.85 log10 K
log K of transfer, gas to solvent ([1]; Toluene, 25 C): 3.94 log10 K
log K of transfer, gas to solvent ([1]; Water, 25 C): -2.11 log10 K
log K of transfer, water to solvent ([2]; 1,2-Dichloroethane, 25 C): 5.55 log10 K
log K of transfer, water to solvent ([2]; 2-Methylpropan-2-ol, 25 C): 5.5 log10 K
log K of transfer, water to solvent ([2]; 3-Methylbutan-1-ol, 25 C): 5.51 log10 K
log K of transfer, water to solvent ([2]; Acetone, 25 C): 5.34 log10 K
log K of transfer, water to solvent ([2]; Acetonitrile, 25 C): 4.79 log10 K
log K of transfer, water to solvent ([2]; Benzene, 25 C): 6.03 log10 K
log K of transfer, water to solvent ([2]; Butan-1-ol, 25 C): 5.37 log10 K
log K of transfer, water to solvent ([2]; Butanone, 25 C): 5.56 log10 K
log K of transfer, water to solvent ([2]; Butyronitrile, 25 C): 5.32 log10 K
log K of transfer, water to solvent ([2]; CCl4, 25 C): 6.16 log10 K
log K of transfer, water to solvent ([2]; Chlorobenzene, 25 C): 6.1 log10 K
log K of transfer, water to solvent ([2]; Chloroform, 25 C): 6.01 log10 K
log K of transfer, water to solvent ([2]; Cyclohexane, 25 C): 6.18 log10 K
log K of transfer, water to solvent ([2]; Cyclohexanone, 25 C): 5.53 log10 K
log K of transfer, water to solvent ([2]; Decan-1-ol, 25 C): 5.43 log10 K
log K of transfer, water to solvent ([2]; Di-n-butyl ether, 25 C): 5.96 log10 K
log K of transfer, water to solvent ([2]; Dichloromethane, 25 C): 5.83 log10 K
log K of transfer, water to solvent ([2]; Diethyl Ether, 25 C): 6.03 log10 K
log K of transfer, water to solvent ([2]; Ethanol, 25 C): 5.28 log10 K
log K of transfer, water to solvent ([2]; Hexadecane, 25 C): 5.78 log10 K
log K of transfer, water to solvent ([2]; Hexane, 25 C): 6.08 log10 K
log K of transfer, water to solvent ([2]; Methanol, 25 C): 4.93 log10 K
log K of transfer, water to solvent ([2]; Octan-1-ol(dry), 25 C): 5.41 log10 K
log K of transfer, water to solvent ([2]; Pentan-1-ol, 25 C): 5.5 log10 K
log K of transfer, water to solvent ([2]; Perfluoroalkane, 25 C): 4.65 log10 K
log K of transfer, water to solvent ([2]; Propan-1-ol, 25 C): 5.28 log10 K
log K of transfer, water to solvent ([2]; Propan-2-ol, 25 C): 5.28 log10 K
log K of transfer, water to solvent ([2]; Propionitrile, 25 C): 5.16 log10 K
log K of transfer, water to solvent ([2]; Tetrahydrofuran, 25 C): 5.96 log10 K
log K of transfer, water to solvent ([2]; Toluene, 25 C): 6.05 log10 K
log K of transfer, water to solvent [3]: 5.15 log10 K
Structure (SMILES): CCCCCCCC

log K of transfer, gas to solvent ([1]; Ethanol, 25 C): 2.04 log10 K
log K of transfer, gas to solvent ([1]; Heptan-1-ol, 25 C): 2.27 log10 K
log K of transfer, gas to solvent ([1]; Hexadecane, 25 C): 2.48 log10 K
log K of transfer, gas to solvent ([1]; Hexane, 25 C): 2.71 log10 K
log K of transfer, gas to solvent ([1]; Methanol, 25 C): 1.92 log10 K
log K of transfer, gas to solvent ([1]; Propan-1-ol, 25 C): 2.12 log10 K
log K of transfer, gas to solvent ([1]; Propan-2-ol, 25 C): 2.12 log10 K
log K of transfer, gas to solvent ([1]; Water, 25 C): -0.88 log10 K
log K of transfer, water to solvent ([2]; Ethanol, 25 C): 2.92 log10 K
log K of transfer, water to solvent ([2]; Heptan-1-ol, 25 C): 3.15 log10 K
log K of transfer, water to solvent ([2]; Hexadecane, 25 C): 3.36 log10 K
log K of transfer, water to solvent ([2]; Hexane, 25 C): 3.59 log10 K
log K of transfer, water to solvent ([2]; Methanol, 25 C): 2.8 log10 K
log K of transfer, water to solvent ([2]; Propan-1-ol, 25 C): 3 log10 K
log K of transfer, water to solvent ([2]; Propan-2-ol, 25 C): 3 log10 K
log K of transfer, water to solvent [3]: 3 log10 K
Structure (SMILES): C1CCCC1

log K of transfer, gas to solvent ([1]; 2-Methylpropan-1-ol, 25 C): 4.54 log10 K
log K of transfer, gas to solvent ([1]; 2-Methylpropan-2-ol, 25 C): 4.33 log10 K
log K of transfer, gas to solvent ([1]; Benzene, 25 C): 4.3 log10 K
log K of transfer, gas to solvent ([1]; Butan-2-ol, 25 C): 4.4 log10 K
log K of transfer, gas to solvent ([1]; Chloroform, 25 C): 5.12 log10 K
log K of transfer, gas to solvent ([1]; Cyclohexane, 25 C): 3.7 log10 K
log K of transfer, gas to solvent ([1]; Hexadecane, 25 C): 3.42 log10 K
log K of transfer, gas to solvent ([1]; Propan-2-ol, 25 C): 4.31 log10 K
log K of transfer, gas to solvent ([1]; Water, 25 C): 3.4 log10 K
log K of transfer, water to solvent ([2]; 2-Methylpropan-1-ol, 25 C): 1.14 log10 K
log K of transfer, water to solvent ([2]; 2-Methylpropan-2-ol, 25 C): 0.93 log10 K
log K of transfer, water to solvent ([2]; Benzene, 25 C): 0.9 log10 K
log K of transfer, water to solvent ([2]; Butan-2-ol, 25 C): 0.999 log10 K
log K of transfer, water to solvent ([2]; Chloroform, 25 C): 1.72 log10 K
log K of transfer, water to solvent ([2]; Cyclohexane, 25 C): 0.3 log10 K
log K of transfer, water to solvent ([2]; Hexadecane, 25 C): 0.022 log10 K
log K of transfer, water to solvent ([2]; Propan-2-ol, 25 C): 0.91 log10 K
log K of transfer, water to solvent [3]: 1.12 log10 K
Structure (SMILES): Cc1ccccn1
